According to patent US20100137313A1 (ASTRAZENECA AB, priority 2008, published 2010):

Target: S. pneumoniae Topoisomerase IV ATPase (ParE) (Streptococcus pneumoniae serotype 4, UniProt Q59961)
Assay: S. pneumoniae Topoisomerase IV ATPase inhibition
Type: biochemical
Settings: values marked * are an average of two or more data points, read-out: % Inh (13 μM) of S. pneumoniae Topoisomerase IV ATPase
Procedure, shortened: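 Phosphate-release ATPase assay: 1.25 nM ParE, 160 μM ATP, DNA-stimulated. Quench with malachite green/molybdate in 1 M HCl, read 650 nm; IC50 from 10-point dose series.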

Sequence of S. pneumoniae Topoisomerase IV ATPase (ParE) (Q59961 whole entry): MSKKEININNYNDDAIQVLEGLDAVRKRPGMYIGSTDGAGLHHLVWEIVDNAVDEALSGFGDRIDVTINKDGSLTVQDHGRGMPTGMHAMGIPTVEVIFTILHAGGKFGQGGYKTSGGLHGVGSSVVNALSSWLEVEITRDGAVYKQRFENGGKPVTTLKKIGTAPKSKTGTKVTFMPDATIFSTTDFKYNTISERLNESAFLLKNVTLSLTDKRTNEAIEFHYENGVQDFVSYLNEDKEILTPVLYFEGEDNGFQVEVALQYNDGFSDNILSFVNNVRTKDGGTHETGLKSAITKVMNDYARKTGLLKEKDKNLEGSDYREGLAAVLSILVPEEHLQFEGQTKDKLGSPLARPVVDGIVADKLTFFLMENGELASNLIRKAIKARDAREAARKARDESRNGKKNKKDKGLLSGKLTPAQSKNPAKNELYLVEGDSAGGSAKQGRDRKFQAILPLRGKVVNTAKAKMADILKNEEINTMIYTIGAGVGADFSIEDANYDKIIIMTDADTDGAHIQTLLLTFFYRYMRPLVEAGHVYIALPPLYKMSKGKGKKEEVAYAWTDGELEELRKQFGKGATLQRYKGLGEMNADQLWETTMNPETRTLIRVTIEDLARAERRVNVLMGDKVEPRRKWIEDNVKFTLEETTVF

COc1cc(Nc2ncc(-c3cnc(OC)c(C(=O)NS(=O)(=O)c4cccc(C(C)=O)c4)c3)c(-n3nc(C(F)(F)F)cc3C)n2)cc(OC)c1 [Example 844, N-[(3-acetylphenyl)sulfonyl]-5-{2-[(3,5-dimethoxyphenyl)amino]-4-[5-methyl-3-(trifluoromethyl)-1H-pyrazol-1-yl]pyrimidin-5-yl}-2-methoxypyridine-3-carboxamide]
inhibition at 13 µM: 100%

COc1cc(Nc2ncc(-c3cnc(OC)c(C(=O)NS(=O)(=O)c4cn(C)nc4C(F)(F)F)c3)c(-n3nc(C(F)(F)F)cc3C)n2)cc(OC)c1 [Example 845, 5-{2-[(3,5-dimethoxyphenyl)amino]-4-[5-methyl-3-(trifluoromethyl)-1H-pyrazol-1-yl]pyrimidin-5-yl}-2-methoxy-N-{[1-methyl-3-(trifluoromethyl)-1H-pyrazol-4-yl]sulfonyl}pyridine-3-carboxamide]
inhibition at 13 µM: 92%

COc1cc(Nc2ncc(-c3cnc(OC)c(C(=O)NS(=O)(=O)c4ccc(CNC(C)=O)cc4)c3)c(-n3nc(C(F)(F)F)cc3C)n2)cc(OC)c1 [Example 846, N-({4-[(acetylamino)methyl]phenyl}sulfonyl)-5-{2-[(3,5-dimethoxyphenyl)amino]-4-[5-methyl-3-(trifluoromethyl)-1H-pyrazol-1-yl]pyrimidin-5-yl}-2-methoxypyridine-3-carboxamide]
inhibition at 13 µM: 97%

COc1cc(Nc2ncc(-c3cnc(OC)c(C(=O)NS(=O)(=O)c4cn(C)c(=O)n(C)c4=O)c3)c(-n3nc(C(F)(F)F)cc3C)n2)cc(OC)c1 [Example 847, 5-{2-[(3,5-dimethoxyphenyl)amino]-4-[5-methyl-3-(trifluoromethyl)-1H-pyrazol-1-yl]pyrimidin-5-yl}-N-[(1,3-dimethyl-2,4-dioxo-1,2,3,4-tetrahydropyrimidin-5-yl)sulfonyl]-2-methoxypyridine-3-carboxamide]
inhibition at 13 µM: 97%

COc1cc(Nc2ncc(-c3cnc(OC)c(C(=O)NS(=O)(=O)CCN4C(=O)CCC4=O)c3)c(-n3nc(C(F)(F)F)cc3C)n2)cc(OC)c1 [Example 848, 5-{2-[(3,5-dimethoxyphenyl)amino]-4-[5-methyl-3-(trifluoromethyl)-1H-pyrazol-1-yl]pyrimidin-5-yl}-N-{[2-(2,5-dioxopyrrolidin-1-yl)ethyl]sulfonyl}-2-methoxypyridine-3-carboxamide]
inhibition at 13 µM: 100%

COc1cc(Nc2ncc(-c3cnc(SC)c(C(=O)O)c3)c(-n3ccc(C(F)(F)F)n3)n2)cc(OC)c1 [Example 851, 5-{2-[(3,5-dimethoxyphenyl)amino]-4-[3-(trifluoromethyl)-1H-pyrazol-1-yl]pyrimidin-5-yl}-2-(methylsulfanyl)pyridine-3-carboxylic acid]
inhibition at 13 µM: 98%

COc1cc(Nc2ncc(-c3cnc(SC)c(C(=O)NS(C)(=O)=O)c3)c(-n3ccc(C(F)(F)F)n3)n2)cc(OC)c1 [Example 852, 5-{2-[(3,5-dimethoxyphenyl)amino]-4-[3-(trifluoromethyl)-1H-pyrazol-1-yl]pyrimidin-5-yl}-2-(methylsulfanyl)-N-(methylsulfonyl)pyridine-3-carboxamide]
inhibition at 13 µM: 100%

COc1cc(Nc2ncc(-c3cnc(SC)c(C(=O)O)c3)c(-n3nc(C(F)(F)F)cc3C)n2)cc(OC)c1 [Example 854, 5-{2-[(3,5-dimethoxyphenyl)amino]-4-[5-methyl-3-(trifluoromethyl)-1H-pyrazol-1-yl]pyrimidin-5-yl}-2-(methylsulfanyl)pyridine-3-carboxylic acid]
inhibition at 13 µM: 100%

COc1cc(Nc2ncc(-c3cnc(SC)c(C(=O)NS(C)(=O)=O)c3)c(-n3nc(C(F)(F)F)cc3C)n2)cc(OC)c1 [Example 855, 5-{2-[(3,5-dimethoxyphenyl)amino]-4-[5-methyl-3-(trifluoromethyl)-1H-pyrazol-1-yl]pyrimidin-5-yl}-2-(methylsulfanyl)-N-(methylsulfonyl)pyridine-3-carboxamide]
inhibition at 13 µM: 94%

COc1cc(C)cc(Nc2ncc(-c3cnc(OC)c(C(=O)NS(C)(=O)=O)c3)c(-n3ccc(C(F)(F)F)n3)n2)c1 [Example 856, 2-methoxy-5-{2-[(3-methoxy-5-methylphenyl)amino]-4-[3-(trifluoromethyl)-1H-pyrazol-1-yl]pyrimidin-5-yl}-N-(methylsulfonyl)pyridine-3-carboxamide]
inhibition at 13 µM: 100%

COc1cc(C)cc(Nc2ncc(-c3cnc(OC)c(C(=O)NS(C)(=O)=O)c3)c(-n3nc(C(F)(F)F)cc3C)n2)c1 [Example 857, 2-methoxy-5-{2-[(3-methoxy-5-methylphenyl)amino]-4-[5-methyl-3-(trifluoromethyl)-1H-pyrazol-1-yl]pyrimidin-5-yl}-N-(methylsulfonyl)pyridine-3-carboxamide]
inhibition at 13 µM: 100%

COc1cc(C)cc(Nc2ncc(-c3cc(C(=O)O)c(=O)n(C)c3)c(-n3ccc(C(F)(F)F)n3)n2)c1 [Example 859, 5-{2-[(3-methoxy-5-methylphenyl)amino]-4-[3-(trifluoromethyl)-1H-pyrazol-1-yl]pyrimidin-5-yl}-1-methyl-2-oxo-1,2-dihydropyridine-3-carboxylic acid]
inhibition at 13 µM: 100%

COc1cc(C)cc(Nc2ncc(-c3cc(C(=O)O)c(=O)n(C)c3)c(-n3nc(C(F)(F)F)cc3C)n2)c1 [Example 861, 5-{2-[(3-methoxy-5-methylphenyl)amino]-4-[5-methyl-3-(trifluoromethyl)-1H-pyrazol-1-yl]pyrimidin-5-yl}-1-methyl-2-oxo-1,2-dihydropyridine-3-carboxylic acid]
inhibition at 13 µM: 100%

CCn1cc(-c2cnc(Nc3cc(C)cc(OC)c3)nc2-n2nc(C(F)(F)F)cc2C)cc(C(=O)O)c1=O [Example 863, 1-ethyl-5-{2-[(3-methoxy-5-methylphenyl)amino]-4-[5-methyl-3-(trifluoromethyl)-1H-pyrazol-1-yl]pyrimidin-5-yl}-2-oxo-1,2-dihydropyridine-3-carboxylic acid]
inhibition at 13 µM: 100%

COc1cc(Nc2ncc(-c3cnc(OC)c(C#N)c3)c(-n3nc(C(F)(F)F)cc3C)n2)cc(OC)c1 [Example 868, 5-(2-(3,5-dimethoxyphenylamino)-4-(5-methyl-3-(trifluoromethyl)-1H-pyrazol-1-yl)pyrimidin-5-yl)-2-methoxynicotinonitrile]
inhibition at 13 µM: 6%

COCC(COC)Oc1ncc(-c2cnc(Nc3ccc(F)c(Cl)c3)nc2-n2ccc(C(F)(F)F)n2)cc1C(=O)O [Example 869, 5-(2-(3-chloro-4-fluorophenylamino)-4-(3-(trifluoromethyl)-1H-pyrazol-1-yl)pyrimidin-5-yl)-2-(1,3-dimethoxypropan-2-yloxy)nicotinic acid]
inhibition at 13 µM: 93%

COCC(COC)Oc1ncc(-c2cnc(Nc3ccc(F)c(Cl)c3)nc2-n2nc(C(F)(F)F)cc2C)cc1C(=O)O [Example 870, 5-(2-(3-chloro-4-fluorophenylamino)-4-(5-methyl-3-(trifluoromethyl)-1H-pyrazol-1-yl)pyrimidin-5-yl)-2-(1,3-dimethoxypropan-2-yloxy)nicotinic acid]
inhibition at 13 µM: 100%

Cc1cc(C(F)(F)F)nn1-c1nc(Nc2ccc(F)c(Cl)c2)ncc1-c1cnc(OCCc2ccncc2)c(C(=O)O)c1 [Example 871, 5-(2-(3-chloro-4-fluorophenylamino)-4-(5-methyl-3-(trifluoromethyl) 1H-pyrazol-1-yl)pyrimidin-5-yl)-2-(2-(pyridin-4-yl)ethoxy)nicotinic acid]
inhibition at 13 µM: 100%

O=C(O)c1cc(-c2cnc(Nc3ccc(F)c(Cl)c3)nc2-n2ccc(C(F)(F)F)n2)cnc1OCCc1ccncc1 [Example 872, 5-(2-(3-chloro-4-fluorophenylamino)-4-(3-(trifluoromethyl)-1H-pyrazol-1-yl)pyrimidin-5-yl)-2-(2-(pyridin-4-yl)ethoxy)nicotinic acid]
inhibition at 13 µM: 100%

COc1cc(Nc2ncc(-c3cnc(OC)c(-c4nnn[nH]4)c3)c(-n3nc(C(F)(F)F)cc3C)n2)cc(OC)c1 [Example 873, N-(3,5-dimethoxyphenyl)-5-(6-methoxy-5-(1H-tetrazol-5-yl)pyridin-3-yl)-4-(5-methyl-3-(trifluoromethyl)-1H-pyrazol-1-yl)pyrimidin-2-amine]
inhibition at 13 µM: 100%

CS(=O)(=O)NC(=O)c1cncc(-c2cnc(Nc3ccc(F)c(Cl)c3)nc2-n2ccc(C(F)(F)F)n2)c1 [Example 874, 5-(2-(3-chloro-4-fluorophenylamino)-4-(3-(trifluoromethyl)-1H-pyrazol-1-yl)pyrimidin-5-yl)-N-(methylsulfonyl)nicotinamide]
inhibition at 13 µM: 100%

O=C(O)/C=C/c1cccc(-c2cnc(Nc3ccc(F)c(Cl)c3)nc2-n2ccc(C3CC3)n2)c1 [Example 875, (E)-3-(3-(2-(3-chloro-4-fluorophenylamino)-4-(3-cyclopropyl-1H-pyrazol-1-yl)pyrimidin-5-yl)phenyl)acrylic acid]
inhibition at 13 µM: 98%

COc1cccc(-c2cnc(Nc3ccc(F)c(Cl)c3)nc2-n2ccc(C(F)(F)F)n2)n1 [Example 876, N-(3-chloro-4-fluorophenyl)-5-(6-methoxypyridin-2-yl)-4-(3-(trifluoromethyl)-1H-pyrazol-1-yl)pyrimidin-2-amine]
inhibition at 13 µM: 0%

O=C(O)c1cccc(-c2cnc(Nc3ccc(F)c(Cl)c3)nc2-n2ccc(C(F)(F)F)n2)n1 [Example 877, 6-(2-(3-chloro-4-fluorophenylamino)-4-(3-(trifluoromethyl)-1H-pyrazol-1-yl)pyrimidin-5-yl)picolinic acid]
inhibition at 13 µM: 100%

CN(C(=O)c1cccc(-c2cnc(Nc3ccc(F)c(Cl)c3)nc2-n2ccc(C(F)(F)F)n2)c1)S(C)(=O)=O [Example 878, 3-(2-(3-chloro-4-fluorophenylamino)-4-(3-(trifluoromethyl)-1H-pyrazol-1-yl)pyrimidin-5-yl)-N-methyl-N-(methylsulfonyl)benzamide]
inhibition at 13 µM: 88%
